Test results from US20250257055A1, “TERTIARY AMIDE DERIVATIVES SUBSTITUTED WITH 4-MEMBERED RING STRUCTURE” (Sumitomo Pharma Co., Ltd., priority 2024, published 2025).
Values after ≈ are worked out from the molar mass of the structure shown. Where two headings read alike, the source gives them in different places.

How the values were obtained:
[1] = Solubility test; format: physicochemical; settings: for solubility: aqueous buffer, thermodynamic from solid
Procedure: The solubility was measured for Examples 7, 10, 20, 23, 24, and 30 to 34, Comparative Example 1, and Comparative Example 2. The test compound was added to 10 mmol/L glycine buffer (pH 2.0) and 10 mmol/L citrate buffer (pH 3.0), and the mixture was stored in a thermostatic chamber at 5° C. After standing overnight, the mixture was filtered through a membrane filter, and the concentration of the filtrate was measured by HPLC.

[2] = Membrane permeability test (PAMPA); format: in vitro ADME
Procedure: The membrane permeability of the test compound was tested by parallel artificial membrane permeability assay (PAMPA) as follows. 200 μL of System solution (pION Inc.) containing the test compound and 4 μL of GIT Lipid-0 (pION Inc.) were added to the donor plate. 200 μL of Acceptor Sink Buffer (pION Inc.) was added to the acceptor plate. Both plates were overlapped and incubated at 37° C. for 4 hours, after which the UV of the solutions on the acceptor side and donor side was measured using a UV plate reader (190-500 nm). Compounds with poor UV absorption were measured using LC-MS. The permeability coefficient Pe (10^−6 cm/sec) of the drug was calculated using the following equation.

[3] = test system: G-401 xenograft; experiment: Drug efficacy evaluation by intravenous administration using G-401 xenograft mice model; format: in vivo
Procedure: G-401 cells (ATCC) were intradermally transplanted into 4-7-week-old BALB/cAnNCrj-nu/nu mice (CAnN.Cg-Foxn1/CrlCrlj, Jackson Laboratory Japan) at 5×10^5 cells/mouse. After confirming the engraftment of G-401 cells 10-40 days after transplantation, the test compound suspended in a solvent such as 10 mmol/L glycine buffer solution (pH 2.0) was administered via the tail vein at least once a week at a dose of 0.015-20 mg/kg. The tumor volume was measured over time from the start of administration, and the effect of tumor volume reduction by administration of the test compound was evaluated. The tumor volume can be calculated from the following equation using the minor axis and major axis of the tumor measured with an electronic caliper (Mitutoyo).
A control administration group administered with only a solvent such as 10 mmol/L glycine buffer solution (pH 2.0) and a test compound administration group were compared, and the antitumor effect was evaluated by calculating T/C from the following equation.

[4] = molecular target: recombinant p300 (Homo sapiens (Human), UniProt Q09472); experiment: HAT activity inhibition experiment (SensoLyte HAT(p300) Assay Kit); format: biochemical; settings: recombinant p300, histone H3 peptide, acetyl CoA
Procedure: The HAT activity inhibitory ability of HAT inhibitors was evaluated using SensoLyte HAT(p300) Assay Kit (ANASPEC, AS-72172). Specifically, 7.5 μL of the compound of Examples […] diluted with assay buffer was added to 7.5 μL of recombinant p300 solution diluted 10 times with assay buffer, and the mixture was incubated at room temperature for 10 minutes. 7.5 μL of acetyl CoA solution diluted 10 times with assay buffer and 15 μL of histone H3 peptide diluted 10 times with assay buffer were added thereto, and the mixture was incubated at 37° C. for 30 minutes. 37.5 μL of Stop Solution was added to stop the reaction. 75 μL of p300 Developer solution diluted 50 times with assay buffer was added, and the mixture was incubated at room temperature for 30 minutes under light-shielded conditions. The fluorescence at 513 nm when irradiated with 389 nm excitation light was measured using a multiplate reader.

[5] = test system: G-401 cells; experiment: Cell proliferation inhibition experiment using G-401 cells; format: cell-based; settings: Homo sapiens, 72 h, cultured for 3 days, CellTiter-Glo
Procedure: G-401 cells (derived from malignant rhabdoid tumor) were obtained from the American Type Culture Collection (ATCC). G-401 cells were cultured in McCoy's 5A medium containing 10% fetal bovine serum and 1% penicillin/streptomycin under conditions of 37° C. and 5% CO2.
(§1) 500 cells per well were seeded in a 384-well plate. One day after seeding, Examples 1 to 35 were added so that the final concentration of DMSO was 0.1%, and the cells were cultured for 3 days. After the culture was completed, the cell viability was measured using CellTiter-Glo Luminescent Cell Viability Assay (Promega, G7570).

[6] = test system: Kuramochi cells; experiment: Cell proliferation inhibition experiment using Kuramochi cells; format: cell-based; settings: 144 h, cultured for 6 days, CellTiter-Glo
Procedure: Kuramochi cells (derived from ovarian cancer) were obtained from JCRB (Japanese Collection of Research Bioresources) cell bank. Kuramochi cells were cultured in RPMI-1640 medium containing 10% fetal bovine serum and 1% penicillin/streptomycin under conditions of 37° C. and 5% CO2.
as §1, with “Examples 3, 7, 9, 10, 11, 20, 23” for “Examples 1”, “to 25, and 30 to 34” for “to 35”, “for 6” for “for 3”

[7] = test system: RMGI cells; experiment: Cell proliferation inhibition experiment using RMGI cells; format: cell-based; settings: Homo sapiens, RMG-I, 144 h, cultured for 6 days, CellTiter-Glo
Procedure: RMGI cells (derived from ovarian cancer) were obtained from JCRB cell bank. RMGI cells were cultured in Ham's F12 medium containing 10% fetal bovine serum and 1% penicillin/streptomycin under conditions of 37° C. and 5% CO2.
as §1, with “200 cells” for “500 cells”, “Examples 3, 7, 9, 10, 11, 20, and 23” for “Examples 1”, “to 25” for “to 35”, “for 6” for “for 3”

[8] = Pharmacokinetic study in mice; format: in vivo; settings: for AUC / clearance / half-life / Vd / Cmax: female, BALB/c (BALB/cAnN CrlCrlj), mouse, plasma; for Vd: read-out: Vdss
Procedure: The test compound was administered to 7-week-old female BALB/c (BALB/cAnN CrlCrlj) mice intravenously (dosage: 1 mg/kg) in a 50% PEG solution (0.01 mol/L HCl) or orally (dosage: 10 mg/kg) in a 0.5% methylcellulose aqueous solution, and blood was collected at the following times:
Intravenous administration: 5 min, 15 min, 30 min, 1 hr, 2 hr, 4 hr, 6 hr, and 24 hr after administration
Oral administration: 15 min, 30 min, 1 hr, 2 hr, 4 hr, 6 hr, and 24 hr after administration
The collected blood was centrifuged at 3000 rpm×10 min using a refrigerated centrifuge set at 4° C., and the obtained plasma was measured by LC-MS. A calibration curve was prepared from the value (peak ratio) obtained by dividing the peak area of the test substance by the peak area of the internal standard substance in MS and the concentration of the plasma calibration curve sample. The concentration in the sample was calculated from the peak ratio and the calibration curve of each sample.

[9] = 10 mmol/L citrate buffer (pH 3.0), 5° C., overnight, read-out: Solubility in pH 3.0 buffer
[10] = 10 mmol/L glycine buffer (pH 2.0), 5° C., overnight, read-out: Solubility in pH 2.0 buffer
[11] = pH 5.0, 37° C., read-out: pH 5.0 Pe
[12] = pH 7.4, 37° C., read-out: pH 7.4 Pe

recombinant p300, sequence (Q09472 whole entry): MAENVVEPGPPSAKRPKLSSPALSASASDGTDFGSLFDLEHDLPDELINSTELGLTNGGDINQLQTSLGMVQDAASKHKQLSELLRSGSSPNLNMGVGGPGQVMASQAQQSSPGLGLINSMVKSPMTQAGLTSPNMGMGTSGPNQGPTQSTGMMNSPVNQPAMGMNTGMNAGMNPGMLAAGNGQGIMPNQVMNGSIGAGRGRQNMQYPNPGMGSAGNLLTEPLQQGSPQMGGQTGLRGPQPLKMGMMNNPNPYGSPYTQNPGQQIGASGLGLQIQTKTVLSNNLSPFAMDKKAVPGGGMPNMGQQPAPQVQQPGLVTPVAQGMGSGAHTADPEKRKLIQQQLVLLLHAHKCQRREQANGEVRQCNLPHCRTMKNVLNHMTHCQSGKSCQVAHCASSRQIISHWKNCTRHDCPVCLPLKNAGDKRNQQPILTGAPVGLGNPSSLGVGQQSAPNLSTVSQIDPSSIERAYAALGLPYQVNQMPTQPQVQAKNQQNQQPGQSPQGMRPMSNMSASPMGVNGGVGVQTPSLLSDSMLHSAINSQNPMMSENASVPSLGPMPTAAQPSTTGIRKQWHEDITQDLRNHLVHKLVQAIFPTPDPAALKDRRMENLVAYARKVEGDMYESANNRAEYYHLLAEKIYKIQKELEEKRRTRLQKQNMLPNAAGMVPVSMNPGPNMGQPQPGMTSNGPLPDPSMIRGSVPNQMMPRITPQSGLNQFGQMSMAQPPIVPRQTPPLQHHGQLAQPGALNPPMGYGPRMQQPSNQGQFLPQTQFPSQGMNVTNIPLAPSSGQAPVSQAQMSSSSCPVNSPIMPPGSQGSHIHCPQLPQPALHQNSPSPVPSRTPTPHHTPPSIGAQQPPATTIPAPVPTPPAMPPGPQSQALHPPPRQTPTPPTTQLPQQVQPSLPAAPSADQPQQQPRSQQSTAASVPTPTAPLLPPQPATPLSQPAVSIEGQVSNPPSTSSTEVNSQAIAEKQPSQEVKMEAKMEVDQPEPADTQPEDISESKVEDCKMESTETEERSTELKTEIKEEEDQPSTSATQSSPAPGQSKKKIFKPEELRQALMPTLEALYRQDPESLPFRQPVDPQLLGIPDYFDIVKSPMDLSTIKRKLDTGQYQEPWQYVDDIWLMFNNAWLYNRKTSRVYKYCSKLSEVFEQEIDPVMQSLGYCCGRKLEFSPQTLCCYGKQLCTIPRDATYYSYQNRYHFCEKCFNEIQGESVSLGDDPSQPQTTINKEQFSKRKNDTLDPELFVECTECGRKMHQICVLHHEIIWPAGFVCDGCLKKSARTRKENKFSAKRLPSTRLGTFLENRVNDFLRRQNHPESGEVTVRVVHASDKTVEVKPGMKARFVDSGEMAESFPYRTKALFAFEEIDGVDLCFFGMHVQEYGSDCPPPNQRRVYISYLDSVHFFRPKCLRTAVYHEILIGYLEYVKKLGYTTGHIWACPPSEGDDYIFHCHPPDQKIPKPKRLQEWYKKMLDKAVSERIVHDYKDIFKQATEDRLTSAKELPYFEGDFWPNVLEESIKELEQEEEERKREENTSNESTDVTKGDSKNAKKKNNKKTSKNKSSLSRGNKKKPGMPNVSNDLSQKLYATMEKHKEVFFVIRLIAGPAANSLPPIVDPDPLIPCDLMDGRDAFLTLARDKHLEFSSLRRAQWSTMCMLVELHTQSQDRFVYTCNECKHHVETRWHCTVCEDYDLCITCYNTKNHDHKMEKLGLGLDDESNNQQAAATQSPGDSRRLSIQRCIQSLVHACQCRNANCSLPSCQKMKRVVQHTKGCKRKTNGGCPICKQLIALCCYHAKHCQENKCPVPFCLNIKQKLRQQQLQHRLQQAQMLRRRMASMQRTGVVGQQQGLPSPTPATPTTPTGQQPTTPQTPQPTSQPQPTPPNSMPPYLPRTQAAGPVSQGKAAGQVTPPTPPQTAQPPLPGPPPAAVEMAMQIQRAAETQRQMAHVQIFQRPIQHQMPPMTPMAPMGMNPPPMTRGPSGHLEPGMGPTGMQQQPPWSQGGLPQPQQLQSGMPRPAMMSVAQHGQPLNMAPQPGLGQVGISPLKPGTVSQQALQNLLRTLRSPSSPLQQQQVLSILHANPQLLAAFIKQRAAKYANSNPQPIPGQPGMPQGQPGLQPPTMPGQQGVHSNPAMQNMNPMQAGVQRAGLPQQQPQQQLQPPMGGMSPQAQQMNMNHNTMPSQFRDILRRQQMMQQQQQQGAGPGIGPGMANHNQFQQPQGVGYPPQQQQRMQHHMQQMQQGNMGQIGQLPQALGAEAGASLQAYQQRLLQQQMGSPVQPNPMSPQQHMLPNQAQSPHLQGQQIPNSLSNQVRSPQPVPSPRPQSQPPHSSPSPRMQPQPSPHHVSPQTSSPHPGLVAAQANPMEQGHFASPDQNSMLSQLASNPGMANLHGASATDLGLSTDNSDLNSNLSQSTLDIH

Row | SMILES | Solubility in pH 3.0 buffer ([1]; 10 mmol/L citrate buffer (pH 3.0), 5° C., overnight) | Solubility in pH 2.0 buffer ([1]; 10 mmol/L glycine buffer (pH 2.0), 5° C., overnight) | solubility [1, 9] | solubility [1, 10] | solubility (in words) ([1]; pH 2.0 and pH 3.0 buffers) | Papp at 4 h [2, 11] | Papp at 4 h [2, 12] | IC50 [4] | AUC ([8]; intravenous, 1 mg/kg) | clearance ([8]; intravenous, 1 mg/kg) | half-life ([8]; intravenous, 1 mg/kg) | Vd ([8]; intravenous, 1 mg/kg) | AUC ([8]; oral, 10 mg/kg) | Cmax ([8]; oral, 10 mg/kg) | BA ([8]; oral, 10 mg/kg) | antitumor effect (in words) ([3]; G-401 xenograft model, intravenous administration) | T/C ([3]; intravenous (tail vein), 0.015 mg/kg, 14 days) | IC50 [5] | IC50 [6] | IC50 [7]
1 | O=C1N[C@]2(C[C@@H](F)c3cc(-c4cnn(C5CN(C6COC6)C5)c4)ccc32)C(=O)N1CC(=O)N(Cc1ccc(F)cc1)C1(C(F)(F)F)COC1 [Example 3, 2-[(1′S,3′R)-3′-fluoro-5′-{1-[1-(oxetan-3-yl)azetidin-3-yl]-1H-pyrazol-4-yl}-2,5-dioxo-2′,3′-dihydrospiro[imidazolidine-4,1′-inden]-1-yl]-N-[(4-fluorophenyl)methyl]-N-[3-(trifluoromethyl)oxetan-3-yl]acetamide] | – | – | – | – | – | 14.9 ×10⁻⁶ cm/s | 17.7 ×10⁻⁶ cm/s | 0.6 nM | 764 ng·h/mL | 20.6 mL/min/kg | 1.8 h | 2 L/kg | 3890 ng·h/mL | 2670 ng/mL | 50.9% | – | – | 44 nM | 91 nM | 18 nM
2 | O=C1N[C@]2(C[C@@H](F)c3cc(-c4cnn(C5CN(C6COC6)C5)c4)ccc32)C(=O)N1CC(=O)N(Cc1ccc(F)cn1)C1(C(F)(F)F)CC(F)(F)C1 [Example 9, N-[3,3-difluoro-1-(trifluoromethyl)cyclobutyl]-2-[(1′S,3′R)-3′-fluoro-5′-{1-[1-(oxetan-3-yl)azetidin-3-yl]-1H-pyrazol-4-yl}-2,5-dioxo-2′,3′-dihydrospiro[imidazolidine-4,1′-inden]-1-yl]-N-[(5-fluoropyridin-2-yl)methyl]acetamide] | – | – | – | – | – | 13.3 ×10⁻⁶ cm/s | 15.3 ×10⁻⁶ cm/s | – | 1200 ng·h/mL | 11.9 mL/min/kg | 2.43 h | 2 L/kg | 13100 ng·h/mL | 5370 ng/mL | 109.1% | – | – | 38 nM | 184 nM | 24 nM
3 | CN1CC(N(Cc2ccc(F)cc2)C(=O)CN2C(=O)N[C@]3(C[C@@H](F)c4cc(-c5cnn(C(C)(C)C#N)c5)ccc43)C2=O)(C(F)(F)F)C1 [Example 11, 2-{(1′S,3′R)-5′-[1-(2-cyanopropan-2-yl)-1H-pyrazol-4-yl]-3′-fluoro-2,5-dioxo-2′,3′-dihydrospiro[imidazolidine-4,1′-inden]-1-yl}-N-[(4-fluorophenyl)methyl]-N-[1-methyl-3-(trifluoromethyl)azetidin-3-yl]acetamide] | – | – | – | – | – | 24.1 ×10⁻⁶ cm/s | 27.2 ×10⁻⁶ cm/s | 2.1 nM | 446 ng·h/mL | 33.7 mL/min/kg | 2.12 h | 4.1 L/kg | 2500 ng·h/mL | 1720 ng/mL | 56.2% | – | – | 10 nM | 48 nM | 5 nM
4 | CN1CC(N(Cc2ccc(F)cn2)C(=O)CN2C(=O)N[C@]3(C[C@@H](F)c4cc(-c5cnn(C6CCC6)c5)ccc43)C2=O)(C(F)(F)F)C1 [Example 34, 2-[(1′S,3′R)-5′-(1-cyclobutyl-1H-pyrazol-4-yl)-3′-fluoro-2,5-dioxo-2′,3′-dihydrospiro[imidazolidine-4,1′-inden]-1-yl]-N-[(5-fluoropyridin-2-yl)methyl]-N-[1-methyl-3-(trifluoromethyl)azetidin-3-yl]acetamide] | – | – | 8100 µg/mL (≈ 12.6 mM) | > 10000 µg/mL | – | 24.4 ×10⁻⁶ cm/s | 34.9 ×10⁻⁶ cm/s | 0.2 nM | – | – | – | – | – | – | – | – | – | 5 nM | 45 nM | –

More lines, main results first:

Row | Solubility in pH 3.0 buffer ([1]; 10 mmol/L citrate buffer (pH 3.0), 5° C., overnight) | Solubility in pH 2.0 buffer ([1]; 10 mmol/L glycine buffer (pH 2.0), 5° C., overnight) | solubility [1, 9] | solubility [1, 10] | solubility (in words) ([1]; pH 2.0 and pH 3.0 buffers) | Papp at 4 h [2, 11] | Papp at 4 h [2, 12] | IC50 [4] | AUC ([8]; intravenous, 1 mg/kg) | clearance ([8]; intravenous, 1 mg/kg) | half-life ([8]; intravenous, 1 mg/kg) | Vd ([8]; intravenous, 1 mg/kg) | AUC ([8]; oral, 10 mg/kg) | Cmax ([8]; oral, 10 mg/kg) | BA ([8]; oral, 10 mg/kg) | SMILES | antitumor effect (in words) ([3]; G-401 xenograft model, intravenous administration) | T/C ([3]; intravenous (tail vein), 0.015 mg/kg, 14 days) | IC50 [5] | IC50 [6] | IC50 [7]
5 | 0.005 mg/mL | 0.002 mg/mL | 5 µg/mL (≈ 0.00808 mM) | 2 µg/mL (≈ 0.00323 mM) | extremely low solubility | 21.3 ×10⁻⁶ cm/s | 20.8 ×10⁻⁶ cm/s | – | – | – | – | – | – | – | – | CNC(=O)Cn1cc(-c2ccc3c(c2)[C@H](F)C[C@]32NC(=O)N(CC(=O)N(Cc3ccc(F)cc3)[C@@H](C)C(F)(F)F)C2=O)cn1 [Comparative Example 1, reference compound] | no antitumor effect | −1.1% | – | – | –
6 | – | – | 8600 µg/mL (≈ 13.6 mM) | > 10000 µg/mL | – | 22.6 ×10⁻⁶ cm/s | 27 ×10⁻⁶ cm/s | 0.2 nM | – | – | – | – | – | – | – | CC(C)n1cc(-c2ccc3c(c2)[C@H](F)C[C@]32NC(=O)N(CC(=O)N(Cc3ccc(F)cn3)C3(C(F)(F)F)CN(C)C3)C2=O)cn1 [Example 33, 2-{(1′S,3′R)-3′-fluoro-2,5-dioxo-5′-[1-(propan-2-yl)-1H-pyrazol-4-yl]-2′,3′-dihydrospiro[imidazolidine-4,1′-inden]-1-yl}-N-[(5-fluoropyridin-2-yl)methyl]-N-[1-methyl-3-(trifluoromethyl)azetidin-3-yl]acetamide] | – | – | 4 nM | 24 nM | –
